These results are taken from ChEMBL document CHEMBL1781940, “Cytotoxic and PPARs transcriptional activities of sterols from the Vietnamese soft coral Lobophytum laevigatum” (Bioorg Med Chem Lett, 2011).

Structures are written as SMILES. Activity calls are given as the source filed them. The rule behind the calls is not given here.

The subject of assay [1] is A549. Put plainly: Cytotoxicity against human A549 cells after 24 hrs by MTT assay. The format is functional, cell-based. Particulars: for IC50: A549, 24 h. Background: Tetrazolium assays rely on reduction of a dye to a coloured formazan, in cell work by metabolically active cells.
The test system of assay [2] is HCT-116. Put plainly: Cytotoxicity against human HCT116 cells after 24 hrs by MTT assay. It is filed as functional, cell-based. Particulars: for IC50: HCT-116, 24 h.
Assay [3] concerns HL-60. Put plainly: Cytotoxicity against human HL60 cells after 24 hrs by MTT assay. Particulars: for IC50: HL-60, 24 h. The format is functional, cell-based.
The subject of assay [4] is HepG2. Put plainly: Transactivation of PPAR transcriptional activity expressed in human HepG2 cells co-expressing PPRE-Luc after 24 hrs by luciferase reporter gene assay relative to negative control. The format is cell-based.
The subject of assay [5] is HepG2. Put plainly: Transactivation of PPAR transcriptional activity expressed in human HepG2 cells co-expressing PPRE-Luc at 1 uM after 24 hrs by luciferase reporter gene assay relative to negative control. The format is cell-based. For orientation: A reporter such as luciferase makes a cellular process visible.
The subject of assay [6] is HepG2. Briefly: Transactivation of PPAR transcriptional activity expressed in human HepG2 cells co-expressing PPRE-Luc at 10 uM after 24 hrs by luciferase reporter gene assay relative to negative control. It is filed as cell-based.
Assay [7] relates to A549. Put plainly: Induction of apoptosis in human A549 cells assessed as chromatin condensation apoptotic bodies at 4.5 uM after 24 hrs using Hoechst 33342 staining and fluorescent microscopy. The format is functional, cell-based.
The subject of assay [8] is HCT-116. Put plainly: Induction of apoptosis in human HCT116 cells assessed as chromatin condensation apoptotic bodies at 3.2 uM after 24 hrs using Hoechst 33342 staining and fluorescent microscopy. The format is functional, cell-based.
In assay [9] the test system is HL-60. Briefly: Induction of apoptosis in human HL60 cells assessed as chromatin condensation apoptotic bodies at 5.6 uM after 24 hrs using Hoechst 33342 staining and fluorescent microscopy. The format is functional, cell-based.

The term IC50 denotes the concentration that inhibits the measured activity by half. The low end stands for inhibition by little substance, the high end for a need for much substance. For `C[C@H](CC[C@H](C)C(C)(C)O)[C@H]1CC[C@H]2[C@@H]3CC=C4C[C@@H](O)CC[C@]4(C)[C@H]3CC[C@]12C`, the IC50 is more than 20 µM with A549 [1], 18.1 µM in the assay with HCT-116 [2] and more than 20 µM in the assay on HL-60 [3].

In the case of `CC(=O)[C@H]1CC[C@H]2[C@@H]3CC=C4C[C@@H](O)CC[C@]4(C)[C@H]3CC[C@]12C`, the Activity result in the assay with HepG2 [4] was “Dose-dependent effect”. For the same compound, the values for the fold change (FC) in the assay on HepG2 [5] and in the assay on HepG2 [6] were 1.6 and 2.1, respectively. Moreover, the result with A549 [1], with HCT-116 [2] and with HL-60 [3] was inactive.

Regarding `O=C1c2c(O)ccc(O)c2C(=O)c2c(NCCNCCO)ccc(NCCNCCO)c21` [MITOXANTRONE], in the assay with HL-60 [3], the IC50 was 8.2 µM.

Take `CC(C)[C@H](C)[C@H](C)[C@@H](O)[C@]1(C)O[C@]12CC[C@H]1[C@@H]3CC[C@H]4[C@H](C)[C@@H](O)CC[C@]4(C)[C@H]3CC[C@@]12C` [LOBOPHYTOSTEROL]: the IC50 with A549 [1] stood at 4.5 µM; with HCT-116 [2], 3.2 µM; with HL-60 [3] it was 5.6 µM. Besides, the result in the assay on A549 [7], in the assay on HCT-116 [8] and with HL-60 [9] was Active.

With `C[C@H]1C[C@]2(O[C@H]3C[C@H]4[C@@H]5CC=C6C[C@@H](O)CC[C@]6(C)[C@H]5CC[C@]4(C)[C@H]3[C@@]2(C)O)OC1(C)C`, the Activity result in the assay on HepG2 [4] was “Dose-dependent effect”. Also, the values for the fold change (FC) with HepG2 [5] and in the assay with HepG2 [6] were 1.4 and 2, respectively. Further, the figures for the IC50 in the assay with A549 [1], with HCT-116 [2] and with HL-60 [3] were more than 20 µM, 6.9 µM and more than 20 µM, respectively.

Take `CC(C)CCC[C@@H](C)[C@H]1CC[C@H]2[C@@H]3CC=C4C[C@@H](O)CC[C@]4(C)[C@H]3CC[C@]12C`: the result with A549 [1], in the assay with HCT-116 [2] and with HL-60 [3] was inactive.

For `CC(C)[C@@H](C)CC[C@@H](C)[C@H]1CC[C@H]2[C@@H]3[C@H](O)C=C4C[C@@H](O)CC[C@]4(C)[C@H]3CC[C@]12C`, the Activity result in the assay on HepG2 [4] was “Dose-dependent effect”. The fold change (FC) in the assay on HepG2 [5] was found to be 1.2; in the assay with HepG2 [6], 2.5. The result with A549 [1], in the assay with HCT-116 [2] and in the assay on HL-60 [3] was inactive.
